Test results: ChEMBL document CHEMBL2384944, “Metabolically Stable tert-Butyl Replacement” (ACS Med Chem Lett, 2013)

Experiments:
[1] = Half life in rat liver microsomes at 1 uM in presence of NADPH
[2] = Half life in human liver microsomes at 1 uM in presence of NADPH
CYP3A4/5 = CYP3A4/5 (Homo sapiens, UniProt P08684+P20815); test: Reversible inhibition of CYP3A4/5 in human liver microsomes using midazolam as substrate preincubated for 30 mins followed by NADPH and substrate addition measured after 10 mins; format: ADME, Microsome; settings: probe midazolam
[3] = Half life in Sprague-Dawley rat at <= 1 mg/kg, iv; format: ADME, organism-based; design: dose 1 mg/kg, route intravenous; settings: in vivo
[4] = Volume of distribution at steady state in Sprague-Dawley rat at <= 1 mg/kg, iv; format: ADME, organism-based; design: dose 1 mg/kg, route intravenous; settings: in vivo, read-out: Vdss
[5] = Lipophilicity, log P of the compound; format: physicochemical; settings: octanol/water
[6] = Clearance in Sprague-Dawley rat at <= 1 mg/kg, iv; format: ADME, organism-based; design: dose 1 mg/kg, route intravenous; settings: in vivo

| half-life at 1 µM ([1]; microsomes) [h] | half-life at 1 µM ([2]; microsomes) [h] | IC50 at 10 min (CYP3A4/5) [µM] | half-life at 1 µM ([1]; liver microsomes) [h] | half-life at 1 µM ([2]; liver microsomes) [h] | SMILES | further results |
| --- | --- | --- | --- | --- | --- | --- |
| 0.5 | 0.85 | > 50 | – | – | CC(C)(C)c1ccc(-c2ccc(C#N)cn2)cc1 | half-life [3]: 2.3 h; Vd [4]: 2.5 L/kg; logP [5]: 4.2; clearance [6]: 20 mL/min/kg |
| 1.17 | 2.03 | – | – | – | CC(C)(C#N)c1ccc(-c2ccc(C#N)cn2)cc1 | – |
| 0.617 | 0.633 | > 50 | – | – | CC1(c2ccc(-c3ccc(C#N)cn3)cc2)COC1 | half-life [3]: 0.4 h; Vd [4]: 1.3 L/kg; clearance [6]: 28 mL/min/kg |
| 0.417 | 1.1 | – | – | – | CC(c1ccc(-c2ccc(C#N)cn2)cc1)C(F)(F)F (centres undefined) | – |
| – | – | > 50 | > 6.67 | 2.5 | N#Cc1ccc(-c2ccc(C3(C(F)(F)F)CC3)cc2)nc1 | half-life [3]: 9.1 h; Vd [4]: 3.4 L/kg; logP [5]: 4; clearance [6]: 4.6 mL/min/kg |
| 0.783 | > 6.75 | – | – | – | N#Cc1ccc(NC(=O)c2ccc(C3(C(F)(F)F)CC3)cc2)cc1 | – |
| – | 1.05 | – | – | – | CC(C)(C)NC(=O)[C@H]1CC[C@H]2[C@@H]3CC[C@H]4NC(=O)C=C[C@]4(C)[C@H]3CC[C@]12C [FINASTERIDE] | – |

The remaining lines, values behind:

| SMILES | half-life at 1 µM ([1]; microsomes) [h] | half-life at 1 µM ([2]; microsomes) [h] | IC50 at 10 min (CYP3A4/5) [µM] | half-life at 1 µM ([1]; liver microsomes) [h] | half-life at 1 µM ([2]; liver microsomes) [h] | further results |
| --- | --- | --- | --- | --- | --- | --- |
| O=C(Nc1ccc(C(F)(F)F)cc1)c1ccc(C2(C(F)(F)F)CC2)cc1 | 0.667 | > 6.75 | – | – | – | – |
| CC(C)(C)c1ccc(-c2ccc(F)cn2)cc1 | 0.4 | 0.45 | > 50 | – | – | – |
| Fc1ccc(-c2ccc(C3(C(F)(F)F)CC3)cc2)nc1 | – | – | > 50 | > 6.75 | 1.07 | – |
| CC(C)(C)c1ccc(-c2ccnc(C#N)c2)cc1 | – | – | – | 0.133 | 0.417 | – |
| N#Cc1cc(-c2ccc(C3(C(F)(F)F)CC3)cc2)ccn1 | – | – | – | 1.25 | 1.15 | – |
| C[C@]12C=CC(=O)N[C@@H]1CC[C@@H]1[C@@H]2CC[C@]2(C)[C@@H](C(=O)NC3(C(F)(F)F)CC3)CC[C@@H]12 | – | – | – | – | 1.9 | – |
| CC(C)(CO)c1ccc(-c2ccc(C#N)cn2)cc1 | 2.08 | 3.37 | – | – | – | – |
| CC(C)(C(=O)O)c1ccc(-c2ccc(C#N)cn2)cc1 | 2.25 | 4.57 | – | – | – | – |
| CC(C)c1ccc(-c2ccc(C#N)cn2)cc1 | 0.117 | 0.15 | > 50 | – | – | – |
| N#Cc1ccc(-c2ccc(C3(C(F)(F)F)CC3)nc2)nc1 | – | – | – | 2.15 | 1.83 | – |
| CC(C)(C)c1ccc(C(=O)Nc2ccc(C(F)(F)F)nc2)cc1 | – | – | > 50 | 0.417 | 0.683 | half-life [3]: 0.2 h; Vd [4]: 5.4 L/kg; clearance [6]: 352 mL/min/kg |
| O=C(Nc1ccc(C(F)(F)F)nc1)c1ccc(C2(C(F)(F)F)CC2)cc1 | – | – | > 50 | 3.28 | > 6.75 | half-life [3]: 3.4 h; Vd [4]: 6.2 L/kg; clearance [6]: 25 mL/min/kg |
| CC(C)(C)c1ccc(C(=O)Nc2ccc(C#N)nc2)cc1 | – | – | – | 0.4 | 0.85 | – |
| N#Cc1ccc(NC(=O)c2ccc(C3(C(F)(F)F)CC3)cc2)cn1 | – | – | – | 1.63 | 1.47 | – |
| CC(C)(C)c1ccc(C(=O)Nc2ccc(C#N)cc2)cc1 | – | – | – | 0.2 | 1.42 | – |
| CC(C)(C)c1ccc(C(=O)Nc2ccc(C(F)(F)F)cc2)cc1 | – | – | – | 0.2 | 0.483 | – |
